Laboratory results from US6057357A, “Peripherally selective kappa opioid agonists” (Warner-Lambert Company, priority 1999, dated 2000).

Assays:
[1] = test system: Swiss male mice; assay: Formalin Test in Mice: Late Phase; assay type: in vivo; settings: Mus musculus, sc, subcutaneous, t=-10 min before formalin 5%
Experimental: Formalin Test in Mice: Late Phase
Swiss male mice (IFFA-CREDO) at 22±3 grams on test day.
Room temperature: 24.5<T<24.8° C.
t=-10 minutes. Subcutaneous administration of drug at 1 mL/100 g body weight. Either as a solution in distilled water or suspension in an aqueous solution of hydroxypropylmethylcellulose 0.2% (v/v).
t=0 minutes. Formalin 5% in sterile saline (v/v) administered by intraplanatar injection (20 μL) into the left paw.
t=+15 minutes. Mouse placed in cylinder.
t=+25 minutes. Nociceptive reaction: number of times left paw is licked during the observation period.
(§1) Results: Mean±sem per group
(§2) Dunnett's test after analysis of variance (Anova one way).
Reference: S. Hunskaar, Journal of Neuroscience Methods, 1985;14:69-76.

[2] = test system: Swiss male mice; assay: Rotarod Test in Mice (ataxic reaction); assay type: in vivo, mouse; settings: subcutaneous, t=-30 min; ED50 of 10 mg/kg
Experimental: (§3) Swiss male mice (IFFA-CREDO) at 22±3 grams on the test day.
(§4) Room temperature: 21.2±0.2° C.
(§5) Rotarod (Ugobasile) at 18 rotations per minute.
(§6) t=-180 minutes and t=-120 minutes: mice trained to stay on the bar at least 120 seconds before falling off.
(§7) t=-30 minutes: Subcutaneous administration of drug at 1 mL/100 g body weight as either solution in distilled water or suspension in an aqueous solution of hydroxypropylmethylcellulose 0.2% (v/v).
(§8) t=0 minutes: Ataxic reaction: time taken for mouse to fall off the rotarod (maximum time 120 seconds).
as §1, §2

[3] = Rotarod Test in Mice (ataxic reaction); assay type: in vivo, mouse; settings: mouse, rotarod, sc; subcutaneous, t=-30 min
Experimental: as §3, §4, §5, §6, §7, §8, §1, §2

Structure (SMILES) | ED50 [1] [mg/kg] | Mouse Rotarod percent effect (in parentheses beside ED50) [2] [%] | ED50 at 0.5 h [3] [mg/kg]
CN(C(=O)Cc1cc2ccccc2o1)[C@H](CN1CCCC1)c1cccc(OCC(=O)O)c1 [Compound 15, (S)-(3-{1-[(Benzofuran-2-yl-acetyl)-methyl-amino]-2-pyrrolidin-1-yl-ethyl}-phenoxy)-acetic acid] | 2.95 | 0 | > 10
CN(C(=O)Cc1coc2ccccc12)[C@H](CN1CCCC1)c1cccc(OCC(=O)O)c1 [Compound 19, (S)-(3-{1-[(Benzofuran-3-yl-acetyl)-methyl-amino]-2-pyrrolidin-1-yl-ethyl}-phenoxy)-acetic acid] | 1.17 | 0 | > 10
CN(C(=O)Cc1ccc(S(C)(=O)=O)cc1)[C@H](CN1CCCC1)c1cccc(OCC(=O)O)c1 [Compound 23] | 6.1 |  | 
CN(C(=O)Cc1coc2ccccc12)[C@H](CN1CC[C@H](O)C1)c1cccc(OCC(=O)O)c1 [Compound 28, [S-(R*,R*)]-{3-[1-[(Benzofuran-3-yl-acetyl)-methyl-amino]-2-(3-hydroxy-pyrrolidin-1-yl)-ethyl]-phenoxy}-acetic acid] | 0.36 | 53 | ~10
CN(C(=O)Cc1cc2ccccc2o1)[C@H](CN1CC[C@H](O)C1)c1cccc(OCC(=O)O)c1 [Compound 33, [S-(R*,R*)]-{3-[1-[(Benzofuran-2-yl-acetyl)-methyl-amino]-2-(3-hydroxy-pyrrolidin-1-yl)-ethyl]-phenoxy}-acetic acid] | 0.19 | 53 | ~10
CN(C(=O)Cc1cccc2occc12)[C@H](CN1CC[C@H](O)C1)c1cccc(OCC(=O)O)c1 [Compound 38] | 0.95 | 0 | > 10
CN(C(=O)Cc1ccc(S(C)(=O)=O)cc1)[C@H](CN1CC[C@H](O)C1)c1cccc(OCC(=O)O)c1 [Compound 43] | 0.51 | 0 | > 10
